From PubChem BioAssay (NCI)
Values joined by “and” are separate entries in the source; they are usually repeats but may differ in a detail not shown here. Equal values may be shown once.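 Step 1: Grow cells in 96-well plates. Step 2: Expose to compound for 48 hours at 5 concentrations. Step 3: Interpolate endpoints linearly; if unreached, use highest concentration. Abbreviation: GI50, concentration required for 50% inhibition of growth. Definition used: TGI = concentration required for complete inhibition of growth.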

Tests used:
Assay in all cases: DTP human tumour cell line panel, 48 h
HCC-2998 colon = test system: HCC-2998 colon
NCI-H23 lung = test system: NCI-H23 lung
SF-295 CNS = test system: SF-295 CNS
HOP-62 NSCLC = test system: HOP-62 NSCLC
M19-MEL melanoma = test system: M19-MEL melanoma
XF 498 CNS = test system: XF 498 CNS
DMS 273 small cell lung = test system: DMS 273 small cell lung
NCI-H460 lung = test system: NCI-H460 lung
EKVX NSCLC = test system: EKVX NSCLC
NCI/ADR-RES ovarian = test system: NCI/ADR-RES ovarian

| SMILES | TGI (HCC-2998 colon) | TGI (NCI-H23 lung) | TGI (SF-295 CNS) | TGI (HOP-62 NSCLC) | TGI (M19-MEL melanoma) | TGI (XF 498 CNS) | TGI (DMS 273 small cell lung) | TGI (NCI-H460 lung) | TGI (EKVX NSCLC) | TGI (NCI/ADR-RES ovarian) | GI50 (HCC-2998 colon) | GI50 (SF-295 CNS) | GI50 (NCI-H460 lung) | GI50 (NCI/ADR-RES ovarian) |
| --- | --- | --- | --- | --- | --- | --- | --- | --- | --- | --- | --- | --- | --- | --- |
| CCCCSC1CCSc2c1ccc1ccccc21 (centres undefined) | > 100 µM | > 100 µM | > 100 µM | > 100 µM | > 100 µM | 63.9 µM |  |  |  |  |  |  |  |  |
| CCCC[C@H](CCc1ccccc1)N(C(=O)OC)N1CCC[C@H]1COC | 28.1 µM | 32 µM | 33.5 µM | 40.4 µM | 40.4 µM | 28.5 µM | 35.6 µM | 31.6 µM | 35.2 µM |  |  |  |  |  |
| O=C(N/C(=C\c1cccc([N+](=O)[O-])c1)c1nc2c3c(ccc2[nH]1)C(=O)c1ccccc1C3=O)c1ccccc1 |  | > 100 µM |  | > 100 µM |  | > 100 µM |  | > 100 µM | > 100 µM |  |  |  |  |  |
| CSc1nc2c(nc(N)n2C2OC(CO)C(O)C(O)C2O)c(=O)[nH]1 (centres undefined) | > 100 µM | > 100 µM | > 100 µM | > 100 µM | > 100 µM | > 100 µM |  | > 100 µM | > 100 µM |  |  |  |  |  |
| Clc1ccc(-c2nnc(-c3nn(-c4ccccc4)c4nc5ccccc5nc34)o2)cc1 | > 100 µM | > 100 µM | > 100 µM | > 100 µM | > 100 µM | 64.6 µM | > 100 µM | > 100 µM | > 100 µM |  |  |  |  |  |
| Oc1ccc(O)c(-n2cccn2)c1 | > 100 µM | > 100 µM | > 100 µM | > 100 µM | 76.1 µM | > 100 µM | > 100 µM | > 100 µM | > 100 µM |  |  |  |  |  |
| CC(C)(C)OC(=O)NC(Cc1ccccc1)C(=S)N1CCCC1 (centres undefined) | > 100 µM | > 100 µM | > 100 µM | 91 µM | > 100 µM | > 100 µM | > 100 µM | > 100 µM | > 100 µM |  |  |  |  |  |
| C=CCN=C1NC(=O)C(CC(=O)Nc2cccc(Cl)c2)S1 (centres undefined) | > 100 µM | > 100 µM | > 100 µM | > 100 µM | > 100 µM | > 100 µM | > 100 µM | > 100 µM | > 100 µM |  |  |  |  |  |
| O=C(NC1CCCCC1)NC12CC3CC(CC(F)(C3)C1)C2 | > 100 µM | > 100 µM |  | > 100 µM | > 100 µM | > 100 µM | > 100 µM | > 100 µM | > 100 µM |  |  |  |  |  |
| COc1ccc(C2=NN(C(C)=O)c3nc4ccccc4nc3O2)cc1 | > 100 µM | > 100 µM | > 100 µM | 64 µM | > 100 µM | 49.2 µM | > 100 µM | > 100 µM | > 100 µM |  |  |  |  |  |
| C/C(=N\N)C(CN1CCOCC1)C(c1ccccc1)c1c(O)c2ccccc2oc1=O (centres undefined) | > 100 µM | > 100 µM | > 100 µM | > 100 µM | > 100 µM |  | > 100 µM | > 100 µM | > 100 µM | > 100 µM |  |  |  |  |
| COc1nc(NC2OC(COC(C)=O)C(OC(C)=O)C(OC(C)=O)C2OC(C)=O)c(N=C(C)C(C)=O)c(=O)n1C (centres undefined) | > 100 µM | > 100 µM | > 100 µM | > 100 µM | > 100 µM | > 100 µM |  | > 100 µM | > 100 µM |  |  |  |  |  |
| O=[N+]([O-])c1cc(I)cc(/C=N/NS(=O)(=O)c2ccc(F)cc2)c1O | > 100 µM | 38.9 µM | 98.2 µM | 55.8 µM | 86.7 µM |  | 48.8 µM | 44 µM | 92.9 µM |  |  |  |  |  |
| CCCCCCCCCCNC(=S)OC | > 100 µM | > 100 µM | > 100 µM | > 100 µM | 69.4 µM |  | > 100 µM | > 100 µM | > 100 µM |  |  |  |  |  |
| Nc1ccc(C(=O)CC2(O)C(=O)Nc3ccccc32)cc1 (centres undefined) |  | > 100 µM | > 100 µM |  | > 100 µM | > 100 µM | > 100 µM | > 100 µM | > 100 µM |  |  |  |  |  |
| COc1cccc(/C=C2\N=C(Cl)OC2=O)c1O | > 100 µM | > 100 µM | > 100 µM | > 100 µM |  | > 100 µM | > 100 µM | > 100 µM | > 100 µM |  |  |  |  |  |
| CC(=O)NNc1ncc(C(=O)/C=C/c2ccccc2C)s1 | > 100 µM | > 100 µM | > 100 µM | > 100 µM | > 100 µM |  | > 100 µM | > 100 µM | > 100 µM |  |  |  |  |  |
| COC(=O)C(/C(=N/N)C(=O)Nc1cc(Cl)ccc1Cl)c1nc2ccc([N+](=O)[O-])cc2[nH]c1=O (centres undefined) | > 100 µM | > 100 µM | > 100 µM | > 100 µM |  | > 100 µM | > 100 µM | > 100 µM | > 100 µM |  |  |  |  |  |
| Cn1nc(-c2ccccc2)c2c(/C=C/c3ccc(F)cc3)onc2c1=O |  | > 100 µM |  | > 100 µM | > 100 µM | > 100 µM | > 100 µM | > 100 µM | > 100 µM |  |  |  |  |  |
| CN1C(c2ccccc2)CC(=NO)CC1c1ccccc1 (centres undefined) | > 100 µM and 81.6 µM | > 100 µM | > 100 µM | > 100 µM | > 100 µM |  | > 100 µM | > 100 µM | > 100 µM |  | 30.5 µM | 44.5 µM | 41.2 µM | 48.8 µM |
